Here are results for 2 molecules from patent US9573895B2, “Tetracycline compounds” (Tetraphase Pharmaceuticals, Inc., priority 2012, dated 2017).

The assay deals with Burkholderia cenocepacia BC240 (Cystic fibrosis isolate, MDR). As to the kind of experiment: MIC assay BC240. The assay is classed as cell-based.

In brackets after ≈: the same amount, converted by molar mass.

With `CN(C)[C@@H]1C(O)=C(C(N)=O)C(=O)[C@@]2(O)C(O)=C3C(=O)c4c(O)cccc4C[C@H]3C[C@@H]12` [Sancycline, sancycline], the “MIC BC240” value (Table 5) amounted to 4 µg/mL (≈ 9.65 µM); the “MIC BC240” value (Table 6) came to 4 µg/mL (≈ 9.65 µM); the “MIC BC240” value (Table 7) was 4 µg/mL (≈ 9.65 µM); the “MIC BC240” value (control compounds, numeric) came to 4 µg/mL (≈ 9.65 µM).
On to `CN(C)c1cc(NC(=O)CNC(C)(C)C)c(O)c2c1C[C@H]1C[C@H]3[C@H](N(C)C)C(O)=C(C(N)=O)C(=O)[C@@]3(O)C(O)=C1C2=O` [Tigecycline, tigecycline], for which the “MIC BC240” value runs as follows: (Table 5) 16 µg/mL (≈ 27.3 µM); (Table 6) 16 µg/mL (≈ 27.3 µM); (Table 7) 16 µg/mL (≈ 27.3 µM); (control compounds, numeric) 16 µg/mL (≈ 27.3 µM).
